Test results from ChEMBL document CHEMBL1201862, “PubChem BioAssay data set” (2004).
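Where inhibition never reached the appropriate level, the endpoint shown equals the highest concentration tested. Otherwise, values were interpolated linearly from a five-concentration, 48-hour dose response in 96-well plates. Abbreviation: GI50, concentration required for 50% inhibition of growth.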 Activity calls are given as the source filed them. Cut-off read from the data, not from the text of the source: active = GI50 up to about 1.1 µM and inactive = higher.

Experiments:
Test in all cases: inhibition of tumour cell growth, NCI panel, 48 h
[1] = tested on: 786-0
[2] = tested on: A498
[3] = tested on: A549
[4] = tested on: ACHN
[5] = tested on: CAKI-1
[6] = tested on: CCRF-CEM
[7] = tested on: COLO 205
[8] = tested on: DLD-1
[9] = tested on: DMS-114
[10] = tested on: DMS-273
[11] = tested on: EKVX
[12] = tested on: HCC 2998
[13] = tested on: HCT-116
[14] = tested on: HCT-15
[15] = tested on: HL-60
[16] = tested on: HOP-18
[17] = tested on: HOP-62
[18] = tested on: HOP-92
[19] = tested on: HT-29
[20] = tested on: IGROV-1
[21] = tested on: K562
[22] = tested on: KM-20L2
[23] = tested on: KM12
[24] = tested on: LOX IMVI
[25] = tested on: LXFL 529
[26] = tested on: M14
[27] = tested on: M19-MEL
[28] = tested on: MOLT-4
[29] = tested on: Malme-3M
[30] = tested on: NCI-H226
[31] = tested on: NCI-H23
[32] = tested on: NCI-H460
[33] = tested on: NCI-H522
[34] = tested on: OVCAR-3
[35] = tested on: OVCAR-4
[36] = tested on: OVCAR-5
[37] = tested on: OVCAR-8
[38] = tested on: RXF 393
[39] = tested on: SF-268
[40] = tested on: SF-295
[41] = tested on: SF-539
[42] = tested on: SK-MEL-28
[43] = tested on: SK-MEL-2
[44] = tested on: SK-MEL-5
[45] = tested on: SK-OV-3
[46] = tested on: SN12C
[47] = tested on: SNB-19
[48] = tested on: SNB-75
[49] = tested on: SNB-78
[50] = tested on: SR
[51] = tested on: SW-620
[52] = tested on: TK-10
[53] = tested on: U-251
[54] = tested on: UACC-257
[55] = tested on: UACC-62
[56] = tested on: UO-31
[57] = tested on: XF498
[58] = tested on: RPMI-8226

## COc1ccc(NC(=O)c2oc3cc(O)ccc3c(=O)c2C)c([N+](=O)[O-])c1
[1]
  GI50: > 100 µM (inactive)
[2]
  GI50: > 100 µM (inactive)
[3]
  GI50: > 100 µM (inactive)
[4]
  GI50: > 100 µM (inactive)
[5]
  GI50: > 100 µM (inactive)
[6]
  GI50: > 100 µM (inactive)
[7]
  GI50: > 100 µM (inactive)
[8]
  GI50: > 100 µM (inactive)
[9]
  GI50: > 100 µM (inactive)
[10]
  GI50: > 100 µM (inactive)
[11]
  GI50: > 100 µM (inactive)
[12]
  GI50: > 100 µM (inactive)
[13]
  GI50: > 100 µM (inactive)
[14]
  GI50: > 100 µM
[15]
  GI50: > 100 µM (inactive)
[16]
  GI50: > 100 µM (inactive)
[17]
  GI50: > 100 µM (inactive)
[18]
  GI50: > 100 µM (inactive)
[19]
  GI50: > 100 µM (inactive)
[20]
  GI50: > 100 µM (inactive)
[21]
  GI50: > 100 µM (inactive)
[22]
  GI50: > 100 µM (inactive)
[23]
  GI50: > 100 µM (inactive)
[24]
  GI50: > 100 µM (inactive)
[25]
  GI50: > 100 µM (inactive)
[26]
  GI50: > 100 µM (inactive)
[27]
  GI50: > 100 µM (inactive)
[28]
  GI50: > 100 µM (inactive)
[29]
  GI50: > 100 µM (inactive)
[30]
  GI50: > 100 µM (inactive)
[31]
  GI50: > 100 µM (inactive)
[32]
  GI50: > 100 µM (inactive)
[33]
  GI50: > 100 µM (inactive)
[34]
  GI50: > 100 µM (inactive)
[35]
  GI50: > 100 µM (inactive)
[36]
  GI50: > 100 µM (inactive)
[37]
  GI50: > 100 µM (inactive)
[38]
  GI50: > 100 µM (inactive)
[39]
  GI50: > 100 µM (inactive)
[40]
  GI50: > 100 µM (inactive)
[41]
  GI50: > 100 µM (inactive)
[42]
  GI50: > 100 µM (inactive)
[43]
  GI50: > 100 µM (inactive)
[44]
  GI50: > 100 µM (inactive)
[45]
  GI50: > 100 µM (inactive)
[46]
  GI50: > 100 µM (inactive)
[47]
  GI50: > 100 µM (inactive)
[48]
  GI50: > 100 µM (inactive)
[49]
  GI50: > 100 µM (inactive)
[50]
  GI50: > 100 µM (inactive)
[51]
  GI50: > 100 µM (inactive)
[52]
  GI50: > 100 µM (inactive)
[53]
  GI50: > 100 µM (inactive)
[54]
  GI50: > 100 µM (inactive)
[55]
  GI50: > 100 µM (inactive)
[56]
  GI50: > 100 µM (inactive)
[57]
  GI50: > 100 µM (inactive)

## C[Si](C)(C)/C=C/CN1C(=O)CCC1=O
[2]
  GI50: > 100 µM (inactive)
[3]
  GI50: > 100 µM (inactive)
[4]
  GI50: > 100 µM (inactive)
[6]
  GI50: > 100 µM (inactive)
[7]
  GI50: > 100 µM (inactive)
[8]
  GI50: > 100 µM (inactive)
[9]
  GI50: > 100 µM (inactive)
[10]
  GI50: > 100 µM (inactive)
[11]
  GI50: > 100 µM (inactive)
[12]
  GI50: > 100 µM (inactive)
[13]
  GI50: > 100 µM (inactive)
[14]
  GI50: > 100 µM
[15]
  GI50: > 100 µM (inactive)
[16]
  GI50: 40.1 µM (inactive)
[18]
  GI50: > 100 µM (inactive)
[19]
  GI50: > 100 µM (inactive)
[20]
  GI50: > 100 µM (inactive)
[21]
  GI50: > 100 µM (inactive)
[22]
  GI50: > 100 µM (inactive)
[23]
  GI50: > 100 µM (inactive)
[24]
  GI50: > 100 µM (inactive)
[25]
  GI50: > 100 µM (inactive)
[26]
  GI50: > 100 µM (inactive)
[27]
  GI50: > 100 µM (inactive)
[28]
  GI50: > 10 µM (inactive)
[29]
  GI50: > 100 µM (inactive)
[31]
  GI50: > 100 µM (inactive)
[32]
  GI50: > 100 µM (inactive)
[33]
  GI50: > 100 µM (inactive)
[34]
  GI50: > 100 µM (inactive)
[36]
  GI50: > 100 µM (inactive)
[58]
  GI50: > 100 µM (inactive)
[39]
  GI50: > 100 µM (inactive)
[41]
  GI50: > 100 µM (inactive)
[42]
  GI50: > 100 µM (inactive)
[43]
  GI50: > 100 µM (inactive)
[44]
  GI50: > 100 µM (inactive)
[45]
  GI50: > 100 µM (inactive)
[46]
  GI50: > 100 µM (inactive)
[47]
  GI50: > 100 µM (inactive)
[48]
  GI50: 83.2 µM (inactive)
[49]
  GI50: > 100 µM (inactive)
[50]
  GI50: > 100 µM (inactive)
[51]
  GI50: > 100 µM (inactive)
[52]
  GI50: > 100 µM (inactive)
[53]
  GI50: > 100 µM (inactive)
[55]
  GI50: > 100 µM (inactive)
[56]
  GI50: > 100 µM (inactive)
[57]
  GI50: > 100 µM (inactive)
